# Source: ChEMBL document CHEMBL1151589, “Synthesis and inhibitory activity of optically active 2-benzyl-3-mercaptopropanoic acid against carboxypeptidase A” (Bioorg Med Chem Lett, 1993)
# Key:
# [1] = target: T1, Mast cell carboxypeptidase A (Homo sapiens, UniProt P15088); assay: Compound was tested for inhibitory activity against carboxypeptidase A; Not active
# T1 sequence (P15088 whole entry): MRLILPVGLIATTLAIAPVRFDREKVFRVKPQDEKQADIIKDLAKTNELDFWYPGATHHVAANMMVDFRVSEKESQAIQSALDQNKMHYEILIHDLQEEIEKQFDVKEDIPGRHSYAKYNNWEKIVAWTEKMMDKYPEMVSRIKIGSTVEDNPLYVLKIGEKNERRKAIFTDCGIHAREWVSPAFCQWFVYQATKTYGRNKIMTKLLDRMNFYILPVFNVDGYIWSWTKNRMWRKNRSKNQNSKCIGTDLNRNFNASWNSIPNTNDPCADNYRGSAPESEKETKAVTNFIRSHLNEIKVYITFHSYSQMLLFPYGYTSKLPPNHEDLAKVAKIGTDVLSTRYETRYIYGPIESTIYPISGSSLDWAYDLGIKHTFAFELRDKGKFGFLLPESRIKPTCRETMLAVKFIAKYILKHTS
# [2] = Compound was tested for inhibitory activity against Carboxypeptidase A
SMILES,Ki [1],Ki [2] [µM]
O=C(O)[C@H](CS)Cc1ccccc1,Not Active,
O=C(O)C(CS)Cc1ccccc1 (racemic),,11
